How the values were obtained:
[1] = target: ATR/ATRIP (Homo sapiens, UniProt Q13535); assay: Inhibition of recombinant human full length ATR/ATRIP expressed in mammalian expression system using c-Myc-tagged p53 as substrate incubated for 15 mins followed by substrate addition measured after 25 to 35 mins by TR-FRET assay
[2] = target: T1, Serine/threonine-protein kinase ATR (Homo sapiens, UniProt Q13535); assay: Inhibition of ATR in human HT29 cells assessed as reduction in Chk1 phosphorylation at Ser345 residues after 4 hrs by Alexa Fluor 488 staining based fluorescence assay; type: cell-based
[3] = target: T1, Serine/threonine-protein kinase ATR; assay: Inhibition of ATR in human U2OS cells harboring ER-LBD fused TopBPI activation domain (978 to 1286 residues) assessed as reduction in 4-OHT-mediated nuclear translocation of TopBPI fragment by measuring gammaH2AX level after 24 hrs by Alexa Fluor 488 staining based fluorescence assay; type: cell-based

Chain of ATR/ATRIP (Q13535 whole entry): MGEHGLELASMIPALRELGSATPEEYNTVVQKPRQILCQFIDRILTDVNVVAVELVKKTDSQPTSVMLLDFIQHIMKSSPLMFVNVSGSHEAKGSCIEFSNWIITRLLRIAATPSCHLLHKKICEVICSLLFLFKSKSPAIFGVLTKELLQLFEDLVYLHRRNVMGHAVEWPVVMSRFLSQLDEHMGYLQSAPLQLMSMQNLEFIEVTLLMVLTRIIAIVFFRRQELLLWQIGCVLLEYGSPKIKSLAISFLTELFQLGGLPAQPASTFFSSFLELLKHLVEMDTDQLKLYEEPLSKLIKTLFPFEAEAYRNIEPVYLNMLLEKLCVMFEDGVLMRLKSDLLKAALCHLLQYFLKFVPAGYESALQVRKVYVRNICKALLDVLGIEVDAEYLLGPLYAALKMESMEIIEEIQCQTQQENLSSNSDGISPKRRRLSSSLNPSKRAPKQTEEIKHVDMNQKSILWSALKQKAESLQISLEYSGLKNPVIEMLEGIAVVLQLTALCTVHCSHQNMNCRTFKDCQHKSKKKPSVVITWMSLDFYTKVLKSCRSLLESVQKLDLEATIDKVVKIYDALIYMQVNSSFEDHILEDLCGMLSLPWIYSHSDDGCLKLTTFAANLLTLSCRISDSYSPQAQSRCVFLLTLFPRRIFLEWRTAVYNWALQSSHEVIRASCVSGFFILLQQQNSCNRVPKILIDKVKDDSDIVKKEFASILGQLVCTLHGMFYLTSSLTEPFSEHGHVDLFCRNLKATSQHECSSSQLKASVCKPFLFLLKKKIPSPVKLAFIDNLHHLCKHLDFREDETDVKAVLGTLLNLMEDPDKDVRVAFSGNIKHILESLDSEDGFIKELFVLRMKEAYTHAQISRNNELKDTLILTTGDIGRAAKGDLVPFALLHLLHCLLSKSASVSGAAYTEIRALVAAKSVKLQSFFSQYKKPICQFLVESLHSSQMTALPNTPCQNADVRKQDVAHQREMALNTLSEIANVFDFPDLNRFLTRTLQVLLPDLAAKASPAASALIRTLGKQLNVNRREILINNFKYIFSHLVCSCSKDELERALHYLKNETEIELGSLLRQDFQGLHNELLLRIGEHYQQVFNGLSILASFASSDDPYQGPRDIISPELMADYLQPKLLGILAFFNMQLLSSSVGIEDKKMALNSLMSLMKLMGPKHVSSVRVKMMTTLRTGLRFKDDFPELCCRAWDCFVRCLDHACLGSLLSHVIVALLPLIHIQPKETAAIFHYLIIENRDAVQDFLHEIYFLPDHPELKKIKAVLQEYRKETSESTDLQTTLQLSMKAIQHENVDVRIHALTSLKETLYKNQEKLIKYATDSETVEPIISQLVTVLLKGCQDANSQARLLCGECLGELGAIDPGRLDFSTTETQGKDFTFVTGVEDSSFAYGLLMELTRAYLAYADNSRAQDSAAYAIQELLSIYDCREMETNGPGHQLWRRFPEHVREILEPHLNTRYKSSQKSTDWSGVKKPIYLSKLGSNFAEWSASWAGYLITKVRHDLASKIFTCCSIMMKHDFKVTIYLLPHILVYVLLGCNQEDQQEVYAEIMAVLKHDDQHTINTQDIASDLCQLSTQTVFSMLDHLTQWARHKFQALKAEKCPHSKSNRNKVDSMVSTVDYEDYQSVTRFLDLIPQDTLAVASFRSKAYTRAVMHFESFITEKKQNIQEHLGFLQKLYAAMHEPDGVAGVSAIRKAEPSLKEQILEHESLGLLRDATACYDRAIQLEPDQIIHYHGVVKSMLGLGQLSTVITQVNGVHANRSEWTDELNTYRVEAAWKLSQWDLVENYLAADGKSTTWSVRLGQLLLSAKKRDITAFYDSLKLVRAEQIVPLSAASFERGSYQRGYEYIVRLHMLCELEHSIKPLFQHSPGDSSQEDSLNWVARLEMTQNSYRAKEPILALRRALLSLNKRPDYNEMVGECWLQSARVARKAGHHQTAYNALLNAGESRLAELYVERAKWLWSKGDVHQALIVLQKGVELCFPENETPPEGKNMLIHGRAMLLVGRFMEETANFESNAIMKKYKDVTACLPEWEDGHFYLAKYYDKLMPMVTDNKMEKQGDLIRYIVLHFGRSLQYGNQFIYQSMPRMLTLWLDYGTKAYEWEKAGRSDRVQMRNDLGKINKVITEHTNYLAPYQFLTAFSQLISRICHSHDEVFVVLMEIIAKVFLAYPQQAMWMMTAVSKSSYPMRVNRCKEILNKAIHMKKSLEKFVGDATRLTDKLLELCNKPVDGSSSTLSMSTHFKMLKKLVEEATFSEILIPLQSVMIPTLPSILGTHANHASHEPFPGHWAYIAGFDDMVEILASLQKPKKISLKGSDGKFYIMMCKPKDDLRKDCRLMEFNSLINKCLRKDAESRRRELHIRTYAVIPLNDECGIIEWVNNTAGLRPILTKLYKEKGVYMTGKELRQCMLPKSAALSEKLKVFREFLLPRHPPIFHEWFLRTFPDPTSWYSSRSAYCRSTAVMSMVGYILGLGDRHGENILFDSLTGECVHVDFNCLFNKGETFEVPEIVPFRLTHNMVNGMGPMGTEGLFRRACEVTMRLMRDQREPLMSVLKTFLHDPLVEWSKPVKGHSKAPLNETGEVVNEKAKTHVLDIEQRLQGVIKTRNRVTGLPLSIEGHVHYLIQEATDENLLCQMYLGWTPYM
Chain of ATR/ATRIP (Q8WXE1 whole entry, further chain): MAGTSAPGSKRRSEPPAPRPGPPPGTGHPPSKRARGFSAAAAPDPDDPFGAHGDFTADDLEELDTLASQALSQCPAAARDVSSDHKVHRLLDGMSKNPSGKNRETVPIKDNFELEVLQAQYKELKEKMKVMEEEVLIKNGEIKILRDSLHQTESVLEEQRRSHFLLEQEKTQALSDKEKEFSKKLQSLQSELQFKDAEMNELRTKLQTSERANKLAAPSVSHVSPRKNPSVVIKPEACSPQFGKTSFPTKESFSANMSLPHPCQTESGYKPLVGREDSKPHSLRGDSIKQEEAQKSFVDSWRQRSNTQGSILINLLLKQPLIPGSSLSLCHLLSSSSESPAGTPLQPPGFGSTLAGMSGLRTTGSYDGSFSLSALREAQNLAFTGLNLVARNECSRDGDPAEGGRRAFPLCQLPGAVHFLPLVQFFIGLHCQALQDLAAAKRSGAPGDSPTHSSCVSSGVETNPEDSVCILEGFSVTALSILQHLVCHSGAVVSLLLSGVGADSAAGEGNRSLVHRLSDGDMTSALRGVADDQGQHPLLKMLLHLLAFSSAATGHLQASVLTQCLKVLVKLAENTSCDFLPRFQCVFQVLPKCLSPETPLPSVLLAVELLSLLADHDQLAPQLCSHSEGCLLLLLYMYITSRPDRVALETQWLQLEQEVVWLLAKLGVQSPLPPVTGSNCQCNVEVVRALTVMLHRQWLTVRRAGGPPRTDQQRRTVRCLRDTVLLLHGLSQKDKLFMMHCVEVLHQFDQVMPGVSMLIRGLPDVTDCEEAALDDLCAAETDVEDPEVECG
T1 sequence (Q13535 whole entry, the tested form may be a part): as the sequence (Q13535 whole entry) above

Row | SMILES | IC50 [1] [nM] | IC50 [2] [nM] | IC50 [3] [nM]
1 | CNc1cnc2[nH]ccc2c1-c1nc2c(c(C(C)(C)S(C)(=O)=O)n1)OC[C@@H]1COC[C@@H](C)N21 | < 1 | < 10 | 10 to 100
2 | CNc1cnc2[nH]ccc2c1-c1nc2c(c(C(C)(C)O)n1)OC[C@@H]1COC[C@@H](C)N21 | < 1 | 10 to 100 | 10 to 100
3 | CNc1nc2ccccc2n1-c1nc2c(c(C(C)(C)S(C)(=O)=O)n1)OC[C@@H]1COC[C@@H](C)N21 | < 1 | < 10 | < 10
4 | CNc1nccn1-c1nc2c(c(C(C)(C)S(C)(=O)=O)n1)OC[C@@H]1COC[C@@H](C)N21 | 10 to 100 | – | 100 to 1000
5 | CCNc1cnc2[nH]ccc2c1-c1nc2c(c(C(C)(C)S(C)(=O)=O)n1)OC[C@@H]1COC[C@@H](C)N21 | 1 to 10 | 10 to 100 | –
6 | C[C@@H]1COC[C@H]2COc3c(nc(N(C)c4ccn[nH]4)nc3C(C)(C)S(C)(=O)=O)N21 | 10 to 100 | – | –
